The text below walks through data of ChEMBL document CHEMBL1201862, “PubChem BioAssay data set” (2004).

Activity calls are given as the source filed them.

The target in data set [1] is T1, Short transient receptor potential channel 4 (Mus musculus, UniProt Q9QUQ5).
T1 sequence (Q9QUQ5 whole entry): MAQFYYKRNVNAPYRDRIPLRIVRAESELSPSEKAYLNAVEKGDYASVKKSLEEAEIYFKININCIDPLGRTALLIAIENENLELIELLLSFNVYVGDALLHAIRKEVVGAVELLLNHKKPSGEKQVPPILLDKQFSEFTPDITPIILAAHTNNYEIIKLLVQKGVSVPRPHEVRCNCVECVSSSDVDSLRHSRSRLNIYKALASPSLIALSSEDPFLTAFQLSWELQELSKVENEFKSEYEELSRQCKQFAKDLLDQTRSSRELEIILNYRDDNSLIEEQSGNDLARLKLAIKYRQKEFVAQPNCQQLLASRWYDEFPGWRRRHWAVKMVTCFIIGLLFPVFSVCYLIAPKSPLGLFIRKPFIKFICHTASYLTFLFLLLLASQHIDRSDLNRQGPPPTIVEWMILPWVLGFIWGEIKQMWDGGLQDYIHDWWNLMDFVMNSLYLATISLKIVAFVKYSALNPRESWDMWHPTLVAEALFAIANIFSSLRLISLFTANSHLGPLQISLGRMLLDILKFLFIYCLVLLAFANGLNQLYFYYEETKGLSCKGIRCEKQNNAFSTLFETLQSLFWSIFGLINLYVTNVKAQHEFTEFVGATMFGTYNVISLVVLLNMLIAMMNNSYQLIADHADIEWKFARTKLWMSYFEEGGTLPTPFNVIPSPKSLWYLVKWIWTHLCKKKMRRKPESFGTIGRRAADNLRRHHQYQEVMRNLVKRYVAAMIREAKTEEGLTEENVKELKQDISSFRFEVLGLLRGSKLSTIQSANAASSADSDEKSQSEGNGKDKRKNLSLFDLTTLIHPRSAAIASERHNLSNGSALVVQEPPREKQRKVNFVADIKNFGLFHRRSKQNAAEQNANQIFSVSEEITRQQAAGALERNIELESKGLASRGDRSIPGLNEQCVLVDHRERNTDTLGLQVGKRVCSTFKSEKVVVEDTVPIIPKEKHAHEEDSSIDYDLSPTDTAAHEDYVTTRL
Put plainly: mouse TRPC4 channel activators, dose response, cell-based, HEK293 TRPC4/mu-opioid, Fluo-4 calcium (AID 434937). It counts as functional.

Data set [2] can be described thus: Vero E6 cell cytotoxicity, dose response, cytotoxicity control for non-replicating M. tuberculosis project, secondary assay (AID 492998). It counts as functional, VeroE6. The settings on record: Vero C1008.
The nature of a further data set: cells. It counts as functional.
A short description of data set [3]: Luminescence Cell-Based Dose Retest to Confirm Inhibitors of Cancer Stem Cells. [Related pubchem assays (depositor defined):AID2717, AID2721]. It counts as functional. The note with it: Homo sapiens.
The target in data set [4] is T2, Ubiquitin-conjugating enzyme E2 N (Homo sapiens, UniProt P61088).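 Note: Dose-response confirmation in a TR-FRET assay detecting UBC13-driven polyubiquitin chain formation, inhibition measured.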
T2 sequence (P61088 whole entry): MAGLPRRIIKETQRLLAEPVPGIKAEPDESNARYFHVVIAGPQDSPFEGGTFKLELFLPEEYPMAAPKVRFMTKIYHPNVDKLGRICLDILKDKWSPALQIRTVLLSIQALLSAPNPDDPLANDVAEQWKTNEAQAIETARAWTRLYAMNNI
It counts as functional.

Data set [5] deals with T3, Microphthalmia-associated transcription factor (Homo sapiens, UniProt O75030).
T3 sequence (O75030 whole entry): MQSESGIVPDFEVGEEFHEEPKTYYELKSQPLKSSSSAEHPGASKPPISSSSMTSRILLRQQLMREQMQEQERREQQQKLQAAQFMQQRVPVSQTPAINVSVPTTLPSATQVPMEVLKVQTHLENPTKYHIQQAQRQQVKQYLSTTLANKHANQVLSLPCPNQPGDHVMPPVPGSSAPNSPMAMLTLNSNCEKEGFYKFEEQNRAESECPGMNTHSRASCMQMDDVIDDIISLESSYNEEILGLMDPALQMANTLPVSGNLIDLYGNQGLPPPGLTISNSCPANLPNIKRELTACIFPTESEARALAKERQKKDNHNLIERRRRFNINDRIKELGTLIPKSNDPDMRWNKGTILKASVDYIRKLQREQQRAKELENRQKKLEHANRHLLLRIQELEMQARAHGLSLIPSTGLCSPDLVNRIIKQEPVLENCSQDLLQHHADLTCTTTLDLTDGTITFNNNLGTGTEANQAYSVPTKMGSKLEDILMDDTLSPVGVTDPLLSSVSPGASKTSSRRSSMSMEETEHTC
Nature of the data set: TRPM1 promoter luciferase signal decrease, dose response, MITF inhibitor project, cell-based, SK-MEL-5, cherry-picked, set 3 (AID 493073).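 Note: SK-MEL-5 melanoma cells with luciferase driven by the MITF target TRPM1 promoter.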 The class given is functional.

The nature of data set [6]: inhibitors of intracellular T. cruzi replication, confirmation, NIH3T3 host cells, beta-gal luminescence (AID 2044).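 Note: intracellular parasites grown in NIH/3T3 mouse fibroblasts as host cells; luminescent beta-galactosidase reporter signal from transgenic T. cruzi replicating inside host cells; inhibitors lower the luminescence signal.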 It counts as functional, cell-based.
The nature of data set [7]: growth suppression of PTEN-null colon cells, dose response, cell-based, HCT116 PTEN knockout (AID 1047).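 Note: HCT116 colon tumor cells with PTEN knocked out; cells exposed to compound for 60 hours before readout; potency for loss of cell viability measured by luminescence.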 The class given is functional.
Data set [8] can be described thus: cytotoxicity toward NIH3T3 fibroblasts, dose response, counter-screen, cell-based, ATP luminescence, mouse fibroblasts (AID 2010).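 Note: cells exposed to compound for about 90 hours before reading.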 It counts as functional. (In general: Counterscreens check selectivity or assay interference.)
Data set [9] in a line: growth suppression of beta-catenin-knockout colon cells, dose response, cell-based, HCT116, human colon tumor (AID 1045).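 Note: HCT116 colon tumor cells with beta catenin knocked out; cells exposed to compound for 60 hours.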 The class given is functional.
The next data set has as its system INS1. Put plainly: beta cell apoptosis inhibitors, cytokine rescue, dose response, luminescence, retest (AID 449756).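 Note: cell death triggered by IL-1 beta plus TNF-alpha plus IFN-gamma mixture; protective hits raise ATP signal compared with cytokine alone wells.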 The class given is functional, cell-based. The note with it: Rattus norvegicus.
In data set [10] the target is Peroxisome proliferator-activated receptor gamma/Nuclear receptor coactivator 2 (Homo sapiens, UniProt P37231). It counts as functional.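 Note: agonist potency for raising coactivator recruitment to the receptor.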
Data set [11] addresses Peroxisome proliferator-activated receptor gamma/Nuclear receptor coactivator 1 (Homo sapiens, UniProt P37231). It counts as functional.
Data set [12] deals with Peroxisome proliferator-activated receptor gamma/Nuclear receptor coactivator 3 (Homo sapiens, UniProt P37231). The class given is functional.
The next data set concerns the target Trypsin (Sus scrofa, UniProt P00761). Nature of the data set: porcine trypsin inhibitors, dose response, selectivity assay for Rce1 protease inhibitor project, biochemical, quenched peptide fluorescence, cherry-pick (AID 488789).
The next data set deals with Cytochrome P450 3A4 (Homo sapiens, UniProt P08684).
Another data set addresses Cytochrome P450 2C9 (Homo sapiens, UniProt P11712).
For a further data set, the target named is Paired box protein Pax-8 (Homo sapiens, UniProt Q06710). Put plainly: inhibitors of PAX8-driven TPO luciferase reporter, dose response, RMG-I cells, cherry-pick (AID 687027).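 Note: luciferase reporter driven by Pax8 target thyroperoxidase promoter measured by SteadyGlo luminescence.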 It counts as functional, cell-based. Background: A reporter such as luciferase makes a cellular process visible.
Data set [13] in a line: THP-1 cell cytotoxicity, dose response, cytotoxicity control for non-replicating M. tuberculosis project (AID 489025). The class given is functional.
Data set [14] is described as follows: cytotoxicity in HEK-293T cells, dose response, cytotoxicity control for TCR NF-kB inhibitor project, luminescence, T-cell screen hits (AID 489026).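 Note: cells exposed to compound about 14 hours before the viability readout.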 It counts as functional, cell-based.

Sequence of Paired box protein Pax-8 (Q06710 whole entry): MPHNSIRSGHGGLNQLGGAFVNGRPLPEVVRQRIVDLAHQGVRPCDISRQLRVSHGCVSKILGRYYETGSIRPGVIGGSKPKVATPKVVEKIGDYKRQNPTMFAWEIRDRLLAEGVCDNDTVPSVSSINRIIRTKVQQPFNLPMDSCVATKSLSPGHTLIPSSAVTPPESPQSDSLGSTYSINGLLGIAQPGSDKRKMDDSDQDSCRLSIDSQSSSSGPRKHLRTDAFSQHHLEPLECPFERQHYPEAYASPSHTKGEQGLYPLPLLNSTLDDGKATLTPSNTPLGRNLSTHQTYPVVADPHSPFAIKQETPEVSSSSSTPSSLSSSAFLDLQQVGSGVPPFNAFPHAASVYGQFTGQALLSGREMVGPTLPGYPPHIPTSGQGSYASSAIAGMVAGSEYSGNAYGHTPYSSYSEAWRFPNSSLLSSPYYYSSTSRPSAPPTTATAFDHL
Sequence of Trypsin (P00761 whole entry): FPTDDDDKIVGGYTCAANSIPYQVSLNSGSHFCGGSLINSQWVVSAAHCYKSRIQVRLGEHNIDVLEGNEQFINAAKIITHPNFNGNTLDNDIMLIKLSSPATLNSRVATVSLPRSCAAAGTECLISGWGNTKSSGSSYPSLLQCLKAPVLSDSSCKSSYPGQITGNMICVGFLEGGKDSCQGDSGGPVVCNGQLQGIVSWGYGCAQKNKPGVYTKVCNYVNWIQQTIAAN
Sequence of Cytochrome P450 2C9 (P11712 whole entry): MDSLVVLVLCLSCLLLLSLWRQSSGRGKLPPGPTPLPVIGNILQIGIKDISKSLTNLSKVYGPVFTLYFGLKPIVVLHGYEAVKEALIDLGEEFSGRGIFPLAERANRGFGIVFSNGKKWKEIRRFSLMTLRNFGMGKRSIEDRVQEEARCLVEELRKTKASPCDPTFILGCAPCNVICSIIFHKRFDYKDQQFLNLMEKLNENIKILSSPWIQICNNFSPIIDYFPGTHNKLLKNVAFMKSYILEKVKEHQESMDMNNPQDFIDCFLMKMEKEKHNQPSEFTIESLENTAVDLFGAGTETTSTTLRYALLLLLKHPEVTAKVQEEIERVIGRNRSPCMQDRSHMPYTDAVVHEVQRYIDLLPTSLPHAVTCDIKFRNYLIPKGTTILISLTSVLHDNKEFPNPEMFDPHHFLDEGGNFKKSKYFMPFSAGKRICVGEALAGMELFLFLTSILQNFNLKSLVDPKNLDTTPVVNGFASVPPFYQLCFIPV
Sequence of Peroxisome proliferator-activated receptor gamma/Nuclear receptor coactivator 2 (P37231 whole entry): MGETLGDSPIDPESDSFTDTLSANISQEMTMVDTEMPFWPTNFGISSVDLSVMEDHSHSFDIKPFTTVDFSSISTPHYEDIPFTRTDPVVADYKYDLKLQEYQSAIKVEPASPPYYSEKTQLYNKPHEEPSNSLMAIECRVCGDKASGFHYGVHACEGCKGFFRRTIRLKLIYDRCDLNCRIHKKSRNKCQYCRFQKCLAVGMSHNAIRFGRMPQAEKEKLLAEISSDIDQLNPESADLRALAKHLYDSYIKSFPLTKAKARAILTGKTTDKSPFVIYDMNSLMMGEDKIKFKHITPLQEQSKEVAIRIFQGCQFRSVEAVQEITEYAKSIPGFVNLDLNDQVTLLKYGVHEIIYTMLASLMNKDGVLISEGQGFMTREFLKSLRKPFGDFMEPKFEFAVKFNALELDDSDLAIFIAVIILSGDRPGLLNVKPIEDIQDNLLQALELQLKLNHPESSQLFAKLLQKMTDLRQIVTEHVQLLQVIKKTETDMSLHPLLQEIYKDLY
Sequence of Peroxisome proliferator-activated receptor gamma/Nuclear receptor coactivator 2 (Q15596 whole entry, further chain): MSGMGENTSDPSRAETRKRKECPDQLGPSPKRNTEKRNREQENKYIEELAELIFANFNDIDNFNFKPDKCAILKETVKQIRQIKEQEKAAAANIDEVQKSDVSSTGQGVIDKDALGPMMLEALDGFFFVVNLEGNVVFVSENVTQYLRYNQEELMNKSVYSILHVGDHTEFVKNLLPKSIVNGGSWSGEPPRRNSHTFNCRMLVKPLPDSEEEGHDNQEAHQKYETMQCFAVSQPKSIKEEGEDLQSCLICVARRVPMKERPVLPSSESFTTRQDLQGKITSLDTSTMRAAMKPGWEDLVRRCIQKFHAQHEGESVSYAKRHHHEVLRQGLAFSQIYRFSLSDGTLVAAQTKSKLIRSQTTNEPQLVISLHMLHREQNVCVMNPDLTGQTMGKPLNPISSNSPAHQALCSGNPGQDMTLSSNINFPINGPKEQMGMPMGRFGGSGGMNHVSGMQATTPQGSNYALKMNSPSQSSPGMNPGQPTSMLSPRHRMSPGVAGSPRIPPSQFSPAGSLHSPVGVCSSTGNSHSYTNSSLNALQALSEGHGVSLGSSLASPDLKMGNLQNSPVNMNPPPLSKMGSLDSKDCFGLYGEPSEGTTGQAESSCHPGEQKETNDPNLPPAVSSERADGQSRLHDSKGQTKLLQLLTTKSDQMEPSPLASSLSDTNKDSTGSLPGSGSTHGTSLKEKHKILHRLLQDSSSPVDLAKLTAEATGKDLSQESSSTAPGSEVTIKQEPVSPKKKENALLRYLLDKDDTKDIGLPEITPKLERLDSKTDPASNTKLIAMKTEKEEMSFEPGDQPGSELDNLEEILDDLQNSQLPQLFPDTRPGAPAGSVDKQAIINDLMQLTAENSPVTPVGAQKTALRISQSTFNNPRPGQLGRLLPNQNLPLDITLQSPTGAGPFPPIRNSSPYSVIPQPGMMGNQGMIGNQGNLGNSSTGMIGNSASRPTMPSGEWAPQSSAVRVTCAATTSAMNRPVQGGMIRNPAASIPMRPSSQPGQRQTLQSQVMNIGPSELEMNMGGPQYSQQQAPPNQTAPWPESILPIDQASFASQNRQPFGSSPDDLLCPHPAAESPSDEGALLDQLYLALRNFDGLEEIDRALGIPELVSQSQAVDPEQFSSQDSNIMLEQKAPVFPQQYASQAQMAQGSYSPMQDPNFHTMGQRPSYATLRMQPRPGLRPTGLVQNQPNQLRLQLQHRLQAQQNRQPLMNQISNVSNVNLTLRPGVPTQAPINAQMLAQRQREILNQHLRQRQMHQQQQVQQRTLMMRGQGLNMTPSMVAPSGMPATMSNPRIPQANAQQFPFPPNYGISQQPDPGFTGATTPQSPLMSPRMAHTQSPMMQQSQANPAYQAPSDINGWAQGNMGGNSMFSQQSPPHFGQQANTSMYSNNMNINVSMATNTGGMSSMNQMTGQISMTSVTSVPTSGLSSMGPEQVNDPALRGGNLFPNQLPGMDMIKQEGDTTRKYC
Sequence of Peroxisome proliferator-activated receptor gamma/Nuclear receptor coactivator 3 (P37231 whole entry): as the sequence (P37231 whole entry) above
Sequence of Peroxisome proliferator-activated receptor gamma/Nuclear receptor coactivator 3 (Q9Y6Q9 whole entry, further chain): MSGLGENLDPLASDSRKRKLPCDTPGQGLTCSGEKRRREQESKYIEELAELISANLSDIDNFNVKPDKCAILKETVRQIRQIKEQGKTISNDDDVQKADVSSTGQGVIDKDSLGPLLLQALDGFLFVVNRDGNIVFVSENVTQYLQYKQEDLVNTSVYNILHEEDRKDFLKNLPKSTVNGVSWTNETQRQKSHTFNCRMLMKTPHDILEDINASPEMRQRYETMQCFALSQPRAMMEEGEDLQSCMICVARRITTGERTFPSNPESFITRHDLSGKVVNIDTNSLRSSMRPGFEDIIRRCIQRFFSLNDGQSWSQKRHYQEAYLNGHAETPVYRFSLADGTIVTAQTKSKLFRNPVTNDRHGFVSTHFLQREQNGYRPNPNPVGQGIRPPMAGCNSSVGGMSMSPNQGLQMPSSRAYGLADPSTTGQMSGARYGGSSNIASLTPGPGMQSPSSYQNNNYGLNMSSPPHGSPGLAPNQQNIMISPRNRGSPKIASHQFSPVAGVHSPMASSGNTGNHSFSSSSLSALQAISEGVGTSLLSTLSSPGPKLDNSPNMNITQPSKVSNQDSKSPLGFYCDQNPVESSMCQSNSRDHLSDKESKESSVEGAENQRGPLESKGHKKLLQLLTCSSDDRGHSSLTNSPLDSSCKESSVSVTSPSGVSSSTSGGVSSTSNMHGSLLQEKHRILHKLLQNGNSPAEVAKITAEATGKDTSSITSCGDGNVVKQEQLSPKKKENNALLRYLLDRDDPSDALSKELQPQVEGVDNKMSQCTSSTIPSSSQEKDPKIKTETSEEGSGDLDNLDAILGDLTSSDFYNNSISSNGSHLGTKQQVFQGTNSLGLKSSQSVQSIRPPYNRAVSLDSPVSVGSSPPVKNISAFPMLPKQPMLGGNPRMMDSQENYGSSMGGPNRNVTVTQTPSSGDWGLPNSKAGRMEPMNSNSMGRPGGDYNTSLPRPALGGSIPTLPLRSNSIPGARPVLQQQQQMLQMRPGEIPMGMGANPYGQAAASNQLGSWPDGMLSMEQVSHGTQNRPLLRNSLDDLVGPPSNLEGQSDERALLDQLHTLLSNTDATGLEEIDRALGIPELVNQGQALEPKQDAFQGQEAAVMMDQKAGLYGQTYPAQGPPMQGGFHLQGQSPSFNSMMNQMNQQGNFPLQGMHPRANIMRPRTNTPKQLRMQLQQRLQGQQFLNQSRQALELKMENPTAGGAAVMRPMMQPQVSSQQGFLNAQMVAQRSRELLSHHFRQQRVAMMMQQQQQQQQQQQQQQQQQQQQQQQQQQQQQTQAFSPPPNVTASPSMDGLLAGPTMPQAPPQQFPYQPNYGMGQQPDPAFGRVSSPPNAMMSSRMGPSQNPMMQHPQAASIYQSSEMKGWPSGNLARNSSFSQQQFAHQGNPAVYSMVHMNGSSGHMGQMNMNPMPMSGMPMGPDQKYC

For the compound `CCN(Cc1ccccc1)S(=O)(=O)c1ccc(C(=O)N(CCCN(C)C)c2nc3c(F)cccc3s2)cc1`, the half-maximal effective concentration (EC50) in data set [1] was 2.11 µM (active).

Take `CCOc1cc(-c2nnc(NC(=O)c3ccco3)o2)cc(OCC)c1OCC`: the CC50 in data set [2] is > 20 µM (active). For the same compound, the 50% inhibitory concentration (IC50) in the data set “cells” was 5.12 µM (active).

For `FC(F)(F)c1cc(CCN2CCNC[C@@H]2Cc2ccccc2)cc(C(F)(F)F)c1`, the half-maximal activity concentration (AC50) was 13.3 µM (active) in data set [3] and 12.3 µM (active) in data set [5]. The IC50 in [4] is > 20 µM (inactive).

In the case of `O=S(=O)(c1ccccc1)c1nnn2c1nc(NC1CCN(Cc3ccccc3)CC1)c1cc(Cl)ccc12`, in data set [1], the EC50 was 6.68 µM (active).

`O=C(N/N=C/c1ccc([N+](=O)[O-])s1)C(O)c1ccccc1` (stereo not drawn): the EC50 in data set [6] was 0.306 µM (active); in data set [7] it was 5.9 µM (active); in data set [8], > 60 µM (inconclusive); in data set [9], 5.56 µM (active). Besides, the AC50 is 4.48 µM (active) in [5] and 7.84 µM (active) in the data set on INS1.

As to `O=C(C1CCCN(Cc2ccccc2)C1)N1CCc2ccccc2C1` (stereo not drawn), the EC50 in [1] is 0.133 µM (active).

For the compound `O=S(=O)(c1ccccc1)c1cnn2c(C(F)(F)F)cc(-c3ccc(F)cc3)nc12`, the EC50 in data set [10], in data set [11] and in data set [12] was > 79.4 µM (not active) each time. Further, the AC50 was 20.2 µM (active) on Trypsin, 3.16 µM (inconclusive) on Cytochrome P450 3A4 and “inconclusive” at Cytochrome P450 2C9.

Turning to `O=C(Nc1ccc(S(=O)(=O)NC2=NCCCCC2)cc1)c1ccc([N+](=O)[O-])s1`, the concentration for a half-maximal effect (EC50) in [6] was 0.201 µM (active); in [8] it was 8.46 µM (active). In addition, the AC50 in data set [5] is 5.11 µM (active); at Paired box protein Pax-8 it was 5.3 µM (active).

Regarding `Cc1ccc(/C=N/NC(=O)C2COc3ccccc3O2)s1` (stereo not drawn), the CC50 in data set [13] was 4.18 µM (active); in data set [2] it was 8.33 µM (active). Further, the values for the IC50 (in [14]; in the data set “cells”) were > 80 µM (inactive) and 7.88 µM (active), respectively.

One may read the EC50 as the concentration that produces a half-maximal response. In general, CC50 refers to the concentration that lowers cell viability or growth by half. In general, IC50 refers to the concentration that gives 50% inhibition. A word on the AC50: it is the concentration giving half of the maximal activity seen.
